The values that follow come from patent publication US20020151712A1, “3-pyrrolidinyloxy-3'-pyridyl ether compounds useful for controlling chemical synaptic transmission” (priority 1999, published 2002).

One data set deals with mice. As to the kind of experiment: mouse hot plate paradigm (analgesia). In kind it is in vivo. Particulars: mouse hot plate 55° C., intraperitoneal, dosed 30 minutes prior to testing, increase in tenth jump latency relative to control. As for the experimental part: An in vivo protocol was utilized to determine the effectiveness of nicotinic acetylcholine receptor ligands as analgesic agents in the mouse hot plate paradigm. Separate groups of mice, (n=8/group) were utilized for each dose group. All drugs were administered by the intraperitoneal route of administration. Test drugs were dissolved in water to make a 6.2 mM stock solution. Animals were dosed with this solution (10 mL/kg body weight) for a 62 micromol/kg dose. Lower doses were administered similarly, following serial dilution of the stock solution in half-log increments. Animals were dosed 30 minutes prior to testing in the hot plate. The hot-plate utilized was an automated analgesia monitor (Model #AHP16AN, Omnitech Electronics, Inc. of Columbus, Ohio). The temperature of the hot plate was maintained at 55° C. and a cut-off time of 180 seconds was utilized. Latency until the tenth jump was recorded as the dependent measure. An increase in the tenth jump latency relative to the control was considered an effect.

In data set [1] the target is neuronal nicotinic acetylcholine receptors (Rattus norvegicus, UniProt P09483+P12390). In words: [3H]-cytisine binding to neuronal nicotinic acetylcholine receptors, crude synaptic membranes from whole rat brain. The following applies: [3H]-CYT 1.25 nM, 60 minutes at 4° C., Ki from IC50 by Cheng and Prusoff correction. As for the experimental part:
The in vitro protocols for determination of nicotinic acetylcholine channel receptor binding potencies of ligands was determined as follows.
Binding of [^3H]-cytisine ([^3H]-CYT) to neuronal nicotinic acetylcholine receptors was accomplished using crude synaptic membrane preparations from whole rat brain (Pabreza et al., Molecular Pharmacol., 1990, v. 39, p. 9). Washed membranes were stored at −80° C. prior to use. Frozen aliquots were slowly thawed and resuspended in 20 volumes of buffer (containing: 120 mM NaCl, 5 mM KCl, 2 mM MgCl2, 2 mM CaCl2 and 50 mM Tris-Cl, pH 7.4 at 4° C.). After centrifuging at 20,000×g for 15 minutes, the pellets were resuspended in 30 volumes of buffer.
The test compounds were dissolved in water to make 10 mM stock solutions. […]
Homogenate (containing 125-150 μg protein) was added to triplicate tubes containing the range of concentrations of test compound described above and [^3H]-CYT (1.25 nM) in a final volume of 500 μl. […] The filters are counted in 4 mL of Ecolume® (ICN). Nonspecific binding was determined in the presence of 10 μM (−)-nicotine and values were expressed as a percentage of total binding. IC50 values were determined with a four-parameter non-linear regression and IC50 values were converted to Ki values using the Cheng and Prusoff correction (Ki=IC50/(1+[ligand]/Kd of ligand).

Structures are written as SMILES. Structures can show the parent of a compound that is named as a salt.

neuronal nicotinic acetylcholine receptors, sequence (P09483 31-630): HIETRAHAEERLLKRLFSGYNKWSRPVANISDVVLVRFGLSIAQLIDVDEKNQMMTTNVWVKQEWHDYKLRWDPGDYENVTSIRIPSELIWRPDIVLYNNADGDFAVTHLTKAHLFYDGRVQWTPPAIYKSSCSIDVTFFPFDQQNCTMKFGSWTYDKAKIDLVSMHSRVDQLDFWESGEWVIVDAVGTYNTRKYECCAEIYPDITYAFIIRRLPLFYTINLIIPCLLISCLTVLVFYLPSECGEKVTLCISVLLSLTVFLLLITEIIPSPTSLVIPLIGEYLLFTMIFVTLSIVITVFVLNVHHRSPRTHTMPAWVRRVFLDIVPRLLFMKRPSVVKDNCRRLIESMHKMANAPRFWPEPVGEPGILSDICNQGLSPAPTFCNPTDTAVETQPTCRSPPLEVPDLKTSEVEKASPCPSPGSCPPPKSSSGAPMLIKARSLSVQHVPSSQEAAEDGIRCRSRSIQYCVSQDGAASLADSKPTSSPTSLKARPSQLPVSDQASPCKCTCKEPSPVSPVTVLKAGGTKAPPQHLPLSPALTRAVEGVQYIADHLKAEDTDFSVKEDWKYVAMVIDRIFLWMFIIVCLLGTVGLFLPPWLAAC
neuronal nicotinic acetylcholine receptors, sequence (P12390 25-500): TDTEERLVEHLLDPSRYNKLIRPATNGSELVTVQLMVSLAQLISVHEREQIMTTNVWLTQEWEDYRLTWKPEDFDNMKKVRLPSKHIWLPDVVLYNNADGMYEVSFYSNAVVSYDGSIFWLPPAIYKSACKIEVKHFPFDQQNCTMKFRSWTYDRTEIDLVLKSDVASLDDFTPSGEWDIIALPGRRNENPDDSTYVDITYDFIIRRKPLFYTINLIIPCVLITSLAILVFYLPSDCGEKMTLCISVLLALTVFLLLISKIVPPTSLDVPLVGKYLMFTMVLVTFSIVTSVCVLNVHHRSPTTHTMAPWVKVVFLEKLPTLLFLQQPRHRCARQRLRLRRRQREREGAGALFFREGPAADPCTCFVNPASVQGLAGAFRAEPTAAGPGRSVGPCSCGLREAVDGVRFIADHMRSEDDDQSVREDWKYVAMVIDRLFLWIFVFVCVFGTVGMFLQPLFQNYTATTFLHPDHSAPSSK

For the molecule `CN1CC[C@H](Oc2cnc(Cl)c(C=Cc3ccncc3)c2)C1.Cl`, the melting point (commonly the temperature of the solid-liquid transition) was in the range of 106 to 108 °C.
Same read-out and setting: with `CC(C)(C)C=CC=Cc1cncc(O[C@H]2CCNC2)c1` (as salt: hydrochloride) [Example 7, 3-(3-(S)-Pyrrolidinyloxy-5-(5,5-dimethylhexadienyl)pyridine hydrochloride] the figure was 148 °C (dec.); with `c1csc(-c2cncc(O[C@@H]3CCNC3)c2)c1` (as salt: hydrochloride) [Example 19, 3-(3-(R)-Pyrrolidinyloxy)-5-thienylpyridine hydrochloride], 201 to 203 °C; with `Fc1ccc(OC2CCCCNC2)cn1` (stereo not drawn) (as salt: hydrochloride) [Example 30, 3-(6-Fluoropyridinyl-3-oxy)perhydroazepine hydrochloride], 121 to 122 °C.
Still for that read-out and setting: the result for `Clc1ncc(OCC2CCNC2)cc1Br` (stereo not drawn) (as salt: toluenesulfonate) [Example 25, 3-Bromo-2-chloro-5-(3-pyrrolidinylmethoxy)pyridine toluenesulfonate] reads 105 to 107 °C.
The same measure, in the same setting: the result for `CN1CCC(COc2ccc(Cl)nc2)C1` (stereo not drawn) (as salt: toluenesulfonate) [Example 32, 2-Chloro-5-(1-methylpyrrolidinyl-3-methoxy)pyridine p-toluenesulfonate] reads 75 to 77 °C.
Regarding `Clc1cc(OCC2CCNC2)cnc1Cl` (stereo not drawn) (as salt: toluenesulfonate) [Example 33, 2,3-Dichloro-5-(pyrrolidinyl-3-methoxy)pyridine p-toluenesulfonate], the melting point was 82 to 84 °C.
On the same count and under the same terms, with `CN1CC[C@@H](Oc2cncc(C=Cc3ccncc3)c2)C1.Cl` [Example 5, 3-(1-Methyl-3-(R)-pyrrolidinyloxy)-5-(2-(4-pyridyl)ethenyl)pyridine hydrochloride] the figure was 88 to 90 °C; with `CCCCCCC#Cc1cncc(O[C@H]2CCNC2)c1.Cl` [Example 8, 3-(3-(S)-pyrrolidinyloxy)-5-(1-octynyl)pyridine hydrochloride], 66 to 68 °C.
Still for that read-out and setting: with `CCCCCCC#Cc1cncc(O[C@@H]2CCN(C)C2)c1.Cl` [Example 10, 3-(1-N-Methyl-3-(R)-pyrrolidinyloxy)-5-(1-octynyl)pyridine hydrochloride] the figure was 133 to 135 °C; with `Cl.c1ncc(-c2cncc(O[C@H]3CCNC3)c2)cn1` [Example 11, 3-(3-(S)-pyrrolidinyloxy)-5-(5-pyrimidyl)pyridine hydrochloride], 60 to 62 °C; with `Cl.c1ncc(-c2cncc(O[C@@H]3CCNC3)c2)cn1` [Example 13, 3-(3-(R)-Pyrrolidinyloxy)-5-(5-pyrimidinyl)pyridine hydrochloride], 67 to 69 °C.
Still for that read-out and setting: the result for `Cl.Nc1cccc(-c2cncc(O[C@H]3CCNC3)c2)c1` [Example 14, 3-(3-(S)-Pyrrolidinyloxy)-5-(3-aminophenyl)pyridine hydrochloride] reads 208 °C (dec.); that for `Cl.c1ccc(-c2cncc(O[C@H]3CCNC3)c2)cc1` [Example 15, 3-(3-(S)-Pyrrolidinyloxy)-5-phenylpyridine hydrochloride], 60 °C (dec.); that for `CN1CC[C@H](Oc2cncc(-c3ccccc3)c2)C1.Cl` [Example 16, 3-(1-Methyl-3-(S)-pyrrolidinyloxy)-5-phenylpyridine hydrochloride], 88 to 90 °C.
Consider `Cl.c1ccc(-c2cncc(O[C@@H]3CCNC3)c2)cc1` [Example 17, 3-(3-(R)-Pyrrolidinyloxy)-5-phenylpyridine hydrochloride], for which the melting point was 60 °C (dec.).
Same read-out and setting: with `Cl.Clc1ccc(-c2cncc(O[C@H]3CCNC3)c2)cc1` [Example 21, 3-(3-(S)-Pyrrolidinyloxy)-5-(4-chlorophenyl)pyridine hydrochloride] the figure was 65 °C (dec.); with `Cl.Clc1ncc(O[C@H]2CCNC2)cc1Br` [Example 22, 3-(3-(S)-Pyrrolidinyloxy)-5-bromo-6-chloropyridine hydrochloride], 178 to 180 °C.
On the same count and under the same terms, the result for `CN1CC[C@H](Oc2cnc(Cl)c(Br)c2)C1.Cl` [Example 23, 3-(1-N-Methyl-3-(S)-pyrrolidinyloxy)-5-bromo-6-chloropyridine hydrochloride] reads 180 °C (dec.).
Take `Clc1ncc(OCC2CCNC2)cc1Br` (stereo not drawn) [Example 25, 3-Bromo-2-chloro-5-(3-pyrrolidinylmethoxy)pyridine toluenesulfonate]: in the data set with mice, the “minimally effective dose (MED), Dosage” value came to 6.2 µmol/kg.
The same measure, in the same setting: the result for `CN1CCC(COc2cnc(Cl)c(Br)c2)C1` (stereo not drawn) [Example 26, 3-Bromo-2-chloro-5-(1-methyl-3-pyrrolidinylmethoxy) pyridine toluenesulfonate] reads 62 µmol/kg; that for `Cc1ccc(S(=O)(=O)O)cc1.Cc1cncc(OCC2CCNC2)c1` (stereo not drawn) [Example 27, 5-methyl-3-(3-pyrrolidinylmethoxy)pyridine tosylate], 19 µmol/kg; that for `Cc1ccc(OC2CCCCNC2)cn1` (stereo not drawn) [Example 29, 3-(6-Methylpyridinyl-3-oxy)perhydroazepine dihydrochloride], 62 µmol/kg.
For the molecule `Clc1ncc(OC[C@@H]2CCNC2)cc1Br` [Example 35, 3-Bromo-2-chloro-5-(3-(R)-pyrrolidinylmethoxy)pyridine 4-methyl benzenesulfonate], in data set [1], the Ki (as a rule, a measure of affinity in units of concentration, obtained from inhibition or displacement) worked out at 0.021 nM.
